Results on 7 molecules are retold here after ChEMBL document CHEMBL1201862, “PubChem BioAssay data set” (2004).

Holding throughout (assay): NCI-60 cell line screen, 48 h
Assay [1] deals with CCRF-CEM.
In assay [2] the test system is HCT-116.
In assay [3] the test system is HCT-15.
Assay [4] has as its system HOP-62.
For assay [5], the system named is HOP-92.
Assay [6] has as its system KM-20L2.
In assay [7] the test system is Malme-3M.
In assay [8] the test system is NCI-H23.
Assay [9] concerns NCI-H522.
The subject of assay [10] is OVCAR-3.
In assay [11] the test system is OVCAR-4.
The subject of assay [12] is SF-268.
For assay [13], the system named is SK-MEL-5.
Assay [14] relates to SK-OV-3.
Assay [15] relates to SR.
Assay [16] has as its system SW-620.
Assay [17] relates to TK-10.
The subject of assay [18] is U-251.
Assay [19] relates to NCI/ADR-RES.
The test system of assay [20] is T47D.

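Each compound was tested at five concentrations against cells in 96-well plates for 48 hours. GI50 = concentration required for 50% inhibition of growth.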 Active and inactive are the calls of the source. No stated cut-off is given here; in the data, active = GI50 up to about 1.1 µM and inactive = higher.

For `CC#CC#C/C=C1\C=CC2(OC=CC2O)O1` (stereo not given), the GI50 was > 11.3 µM (inactive) in assay [1]; 8.04 µM (inactive) in assay [2]; 7.4 µM in [3]; > 23.3 µM (inactive) in assay [4]; 7.13 µM (inactive) in assay [5]; 3.94 µM (inactive) in assay [6]. Further, the GI50 in assay [7] is 10.4 µM (inactive); in [8], > 20.3 µM (inactive); in assay [9] it was 5.65 µM (inactive); in assay [10], 7.52 µM (inactive); in [11], 8.26 µM (inactive); in [12] it was > 23.3 µM (inactive). Further, the GI50 in [13] is > 12.9 µM (inactive); in assay [14], > 23.3 µM (inactive); in assay [15] it was > 12.7 µM (inactive); in [16], 8.28 µM (inactive); in assay [17], > 23.3 µM (inactive); in assay [18] it was > 20.7 µM (inactive).

Consider `SCc1ccc(-c2ccc(CS)cc2)cc1`, for which the GI50 was 1.43 µM (inactive) in assay [1]; 7.55 µM (inactive) in assay [2]; 17.6 µM in [3]; 6.75 µM (inactive) in assay [4]; 17.9 µM (inactive) in [5]; 23.6 µM (inactive) in [6]. Besides, the GI50 was 16.9 µM (inactive) in assay [7]; 14.4 µM (inactive) in assay [8]; 17.8 µM (inactive) in assay [9]; 7.16 µM (inactive) in assay [19]; 16.4 µM (inactive) in [10]; 6.38 µM (inactive) in assay [11]. The GI50 was 3.33 µM (inactive) in assay [12]; 15.6 µM (inactive) in [13]; 17.6 µM (inactive) in assay [14]; 2.42 µM (inactive) in [15]; 22.2 µM (inactive) in [16]; 19.7 µM (inactive) in assay [20]. Further, the GI50 in assay [17] is 24.3 µM (inactive); in assay [18] it was 15.1 µM (inactive).

With `Cc1cc2c3ccccc3n3c2c2c1OC1(C)CCC(C2C1)C3(C)C` (stereo not given), the GI50 in assay [1] is > 25 µM (inactive); in assay [2], > 25 µM (inactive); in assay [3], over 25 µM; in assay [4] it was > 25 µM (inactive); in assay [5], > 25 µM (inactive); in [6] it was > 25 µM (inactive). The GI50 in assay [7], in assay [9], in assay [10], in [11], in [12] and in [13] was > 25 µM (inactive) in each case. The GI50 in assay [14], in assay [15], in assay [16], in [17] and in assay [18] was > 25 µM (inactive) each time.

On to `CCS(CC)(CC)CC1CCCC2=CCC(P(=O)(c3ccccc3)c3ccccc3)CC21` (stereo not given), for which the GI50 in [1] is 6.78 µM (inactive); in assay [2], 7.36 µM (inactive); in assay [3], 8.26 µM; in assay [4], 16.3 µM (inactive); in [5], 2.5 µM (inactive); in assay [6], 11.5 µM (inactive). Moreover, the GI50 in [7] was 18.4 µM (inactive); in [8], 10.5 µM (inactive); in [9], 11 µM (inactive); in assay [10] it was 13.7 µM (inactive); in assay [11], 10.1 µM (inactive); in assay [12], 11.4 µM (inactive). The GI50 in assay [13] is 13.2 µM (inactive); in assay [14], 12.7 µM (inactive); in assay [15], 6.27 µM (inactive); in assay [16] it was 13.9 µM (inactive); in assay [17], 12.7 µM (inactive); in assay [18], 10.2 µM (inactive).

Turning to `O=C(NCCCCCCNC(=O)n1cc(F)c(=O)[nH]c1=O)NCCCOCCOCCOCCOCCOCCOCCOCCOCCOCCOCCOCCOCCOCCOCCOCCOCCOCCOCCOCCOCCOCCCNC(=O)C(O)C(O)C(OC1OC(CO)C(O)C(O)C1O)C(O)CO` (stereo not given), the GI50 in assay [1] is > 83.8 µM (inactive); in [2] it was 9.16 µM (inactive); in assay [3], 17.5 µM; in assay [4] it was 20.6 µM (inactive); in [5] it was > 100 µM (inactive); in assay [6], 24.1 µM (inactive). In addition, the GI50 in assay [7] was 35.8 µM (inactive); in [8], 22.5 µM (inactive); in assay [9] it was 87.9 µM (inactive); in [19] it was 47.2 µM (inactive); in assay [10], 37.1 µM (inactive); in [11] it was 29.6 µM (inactive). Moreover, the GI50 in [12] is 75.5 µM (inactive); in assay [13], 20.5 µM (inactive); in assay [14], > 86.9 µM (inactive); in [15], 16 µM (inactive); in [16], 64.7 µM (inactive); in assay [20], 85.7 µM (inactive). The GI50 in assay [17] is > 100 µM (inactive); in assay [18], > 89.7 µM (inactive).

Turning to `COc1ccc2c(=O)cc(-c3ccc(OC)c(OC)c3OC)oc2c1`, the GI50 in assay [1] is > 31.6 µM (inactive); in [2], > 100 µM (inactive); in [3], over 100 µM; in assay [4], > 85.3 µM (inactive); in assay [5], 33.1 µM (inactive); in assay [6], 26.5 µM (inactive). Moreover, the GI50 in assay [7] was 40.4 µM (inactive); in assay [8] it was > 100 µM (inactive); in [9], > 39.8 µM (inactive); in assay [19], 28.4 µM (inactive); in [10] it was > 44.4 µM (inactive); in [11] it was > 93.3 µM (inactive). Also, the GI50 in [12] is > 60.1 µM (inactive); in [13] it was 49 µM (inactive); in assay [14], > 89.1 µM (inactive); in assay [15] it was 74.8 µM (inactive); in [16], > 100 µM (inactive); in assay [20] it was > 100 µM (inactive). The GI50 in [17] and in assay [18] was > 100 µM (inactive) in each case.

Regarding `COc1c(O)c2c(c3cc(C(=O)N4CCc5c4c(O)c(OC)c4[nH]c(C(=O)N6CC7CC78C6=CC(=O)c6[nH]cc(C)c68)cc54)[nH]c13)CCN2C(N)=O` (stereo not given) [CC-1065], the GI50 in assay [1] was 0.00507 µM (active); in [2], 0.000207 µM (active); in assay [3] it was 0.0149 µM; in [5], 0.00306 µM (active); in assay [6], 0.00334 µM (active); in assay [7], 0.00209 µM (active). The GI50 in [8] is 0.000927 µM (active); in assay [9], 0.0205 µM (active); in assay [10] it was 0.0197 µM (active); in assay [12], 0.00259 µM (active); in assay [13] it was 0.0126 µM (active); in assay [14], 0.00217 µM (active). Further, the GI50 is 0.00914 µM (active) in assay [15]; 0.00105 µM (active) in [16]; 0.356 µM (active) in assay [20]; 0.0266 µM (active) in assay [17]; 0.000191 µM (active) in assay [18].
